Assay results reported in PubChem BioAssay AID328 (DTP/NCI, 2004).
“And” between values parts separate entries of the source, which are not always exact repeats. Identical values can stand only once. Inconclusive results and toxic doses are left out. Non-standard residues stand in square brackets, D forms with d. Residues, ends and D or L forms follow the SMILES beside them. ξ: configuration not given here. *: point of attachment. Boc = CC(C)(C)OC(=O)*; ξM = CSCCC(N)C(=O)O

Test system: BDF1 mice, P388 leukemia ip, median survival T/C
Test: NCI In Vivo Anticancer Drug Screen. Data for tumor model P388 Leukemia (intraperitoneal) in B6D2F1 (BDF1) mice
Conditions: endpoint: median survival time, higher = longer survival
Summary of the method: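 Steps: implant the tumour, treat one group with compound and another with vehicle, record survival, then divide treated by control.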

[1] = dose: 100.0 mg/kg/injection, schedule: Q04DX003 (ip), vehicle: saline with Tween-80
[2] = dose: 200.0 mg/kg/injection, schedule: Q04DX003 (ip), vehicle: saline with Tween-80
[3] = dose: 400.0 mg/kg/injection, schedule: Q04DX003 (ip), vehicle: saline with Tween-80
[4] = dose: 50.0 mg/kg/injection, schedule: Q01DX009 (ip), vehicle: Klucel (hydroxypropylcellulose) (HPC)
[5] = dose: 100.0 mg/kg/injection, schedule: Q04DX003 (ip), vehicle: Klucel (hydroxypropylcellulose) (HPC)
[6] = dose: 200.0 mg/kg/injection, schedule: Q04DX003 (ip), vehicle: Klucel (hydroxypropylcellulose) (HPC)
[7] = dose: 400.0 mg/kg/injection, schedule: Q04DX003 (ip), vehicle: Klucel (hydroxypropylcellulose) (HPC)
[8] = dose: 50.0 mg/kg/injection, schedule: Q01DX005 (ip), vehicle: saline with Tween-80
[9] = dose: 100.0 mg/kg/injection, schedule: Q01DX005 (ip), vehicle: saline with Tween-80
[10] = dose: 200.0 mg/kg/injection, schedule: Q01DX005 (ip), vehicle: saline with Tween-80
[11] = dose: 100.0 mg/kg/injection, schedule: Q01DX009 (ip), vehicle: saline with Tween-80
[12] = dose: 200.0 mg/kg/injection, schedule: Q01DX009 (ip), vehicle: saline with Tween-80
[13] = dose: 400.0 mg/kg/injection, schedule: Q01DX009 (ip), vehicle: saline with Tween-80
[14] = dose: 50.0 mg/kg/injection, schedule: Q01DX009 (ip), vehicle: saline
[15] = dose: 100.0 mg/kg/injection, schedule: Q01DX009 (ip), vehicle: saline
[16] = dose: 12.5 mg/kg/injection, schedule: Q01DX009 (ip), vehicle: Klucel (hydroxypropylcellulose) (HPC)
[17] = dose: 25.0 mg/kg/injection, schedule: Q01DX009 (ip), vehicle: Klucel (hydroxypropylcellulose) (HPC)
[18] = dose: 6.25 mg/kg/injection, schedule: Q01DX009 (ip), vehicle: saline with Tween-80
[19] = dose: 12.5 mg/kg/injection, schedule: Q01DX009 (ip), vehicle: saline with Tween-80
[20] = dose: 25.0 mg/kg/injection, schedule: Q01DX009 (ip), vehicle: saline with Tween-80
[21] = dose: 50.0 mg/kg/injection, schedule: Q01DX009 (ip), vehicle: saline with Tween-80
[22] = dose: 200.0 mg/kg/injection, schedule: Q01DX009 (ip), vehicle: saline

For Cc1cc2nc(Cc3nc4cc(C)c(C)cc4[nH]3)[nH]c2cc1C, the T/C [1] was 95 % of control, the T/C [2] was 90 % of control and the T/C [3] was 95 % of control.

In the case of COc1cc(N(C)C)c(OC)cc1C=O, the T/C [4] is reported as 100 % of control, the T/C (dose: 100.0 mg/kg/injection, schedule: Q01DX009 (ip), vehicle: Klucel (hydroxypropylcellulose) (HPC)) is reported as 90 % of control and the T/C [5] is reported as 95 % of control. The T/C (dose: 200.0 mg/kg/injection, schedule: Q01DX009 (ip), vehicle: Klucel (hydroxypropylcellulose) (HPC)) was 109 % of control, the T/C [6] was 95 % of control and the T/C [7] was 100 % of control.

With S=c1nc[nH]c2c1ccc1[nH]cnc12 the T/C (dose: 12.5 mg/kg/injection, schedule: Q01DX005 (ip), vehicle: saline with Tween-80) was 99 % of control, the T/C (dose: 25.0 mg/kg/injection, schedule: Q01DX005 (ip), vehicle: saline with Tween-80) was 100 % of control and the T/C [8] was 99 % of control and 107 % of control. The T/C [9] was 90 % of control and the T/C [10] was 104 % of control.

With O=S(=O)(C1=CCCCC1)C1=CCCCC1 the T/C (dose: 25.0 mg/kg/injection, schedule: Q04DX003 (ip), vehicle: saline with Tween-80) was 104 % of control, the T/C (dose: 50.0 mg/kg/injection, schedule: Q04DX003 (ip), vehicle: saline with Tween-80) was 99 % of control and the T/C [1] was 88 % of control and 100 % of control.

For COc1ccc(Br)cc1/C=N/N=C/c1cc(Br)ccc1OC, the T/C [11] was 95 % of control, the T/C [12] was 95 % of control and the T/C [13] was 95 % of control.

With Cc1nn2c(=O)[nH]cnc2c1Cl the T/C [11] was 93 % of control, the T/C [12] was 100 % of control and the T/C [2] was 95 % of control. The T/C [3] was 109 % of control.

CCc1cc(CC)n2cnnc2n1 was tested, and the T/C [14] was 89 % of control and the T/C [15] was 89 % of control.

In the case of COc1ccc(N=C(c2ccccc2)c2ccccc2)cc1, the T/C [11] is reported as 91 % of control, the T/C [1] is reported as 92 % of control and the T/C [12] is reported as 108 % of control. The T/C [2] was 100 % of control, the T/C [13] was 108 % of control and the T/C [3] was 96 % of control.

For O=C(O)C1CC[N-]CC1.O=C(O)C1CC[N-]CC1.[NH2-].[NH2-].[Pt+4], the T/C (dose: 50.0 mg/kg/injection, schedule: Q01DX009 (ip), vehicle: water) was 96 % of control, the T/C (dose: 100.0 mg/kg/injection, schedule: Q01DX009 (ip), vehicle: water) was 96 % of control and the T/C (dose: 400.0 mg/kg/injection, schedule: Q01DX009 (ip), vehicle: water) was 113 % of control.

With CSCCC(NC(=O)CNC(=O)OC(C)(C)C)C(=O)NCC(=O)O (stereo not drawn) (Boc-Gly-[ξM]-Gly-OH) the T/C [8] was 98 % of control, the T/C [9] was 95 % of control and the T/C [10] was 95 % of control.

In the case of COc1cc(OC)c2c[n+](C)c3c4cc(OC)c(OC)cc4ccc3c2c1, the T/C (dose: 6.25 mg/kg/injection, schedule: Q01DX009 (ip), vehicle: Klucel (hydroxypropylcellulose) (HPC)) is reported as 154 % of control, the T/C [16] is reported as 154 % of control and 169 % of control and the T/C [17] is reported as 170 % of control and 172 % of control. The T/C [4] was 155 % of control and 180 % of control.

With O=C(O)/C(Cl)=C(Cl)\C=N\Nc1ccccc1 the T/C (dose: 200.0 mg/kg/injection, schedule: Q04DX002 (ip), vehicle: saline with Tween-80) was 98 % of control.

CC(=O)[C@@]12OC(C)(C)O[C@@H]1C[C@H]1[C@@H]3C[C@H](C)C4=CC(=O)CC[C@]4(C)[C@H]3CC[C@@]12C was tested, and the T/C [11] was 104 % of control, the T/C [1] was 109 % of control and the T/C [12] was 104 % of control. The T/C [2] was 95 % of control and the T/C [3] was 104 % of control.

c1ccc(C2SCSCS2)cc1 was tested, and the T/C [5] was 100 % of control, the T/C [6] was 95 % of control and the T/C [7] was 95 % of control.

For O=C(Nc1ccc(C2=NCCN2)cc1)c1ccc(C(=O)Nc2ccc(C3=NCCN3)cc2)c(Cl)c1, the T/C (dose: 1.56 mg/kg/injection, schedule: Q01DX009 (ip), vehicle: saline with Tween-80) was 152 % of control, the T/C (dose: 3.13 mg/kg/injection, schedule: Q01DX009 (ip), vehicle: saline with Tween-80) was 161 % of control and the T/C [18] was 189 % of control and 204 % of control. For the same compound, the T/C (dose: 8.0 mg/kg/injection, schedule: Q01DX010 (ip), vehicle: water) was 150 % of control and 160 % of control, the T/C (dose: 10.0 mg/kg/injection, schedule: Q01DX010 (ip), vehicle: water) was 154 % of control and 195 % of control and the T/C (dose: 12.0 mg/kg/injection, schedule: Q01DX010 (ip), vehicle: water) was 160 % of control and 170 % of control. The T/C [19] was 250 % of control and 200 % of control and 211 % of control and the T/C [20] was 270 % of control and 108 % of control.

With O.Oc1ccccc1C=NCCC[N-]CCCN=Cc1ccccc1O.[Co] the T/C [21] was 114 % of control.

O=C1CC(c2ccc([N+](=O)[O-])cc2)=Nc2ccccc2N1 was tested, and the T/C [1] was 109 % of control, the T/C [2] was 104 % of control and the T/C [3] was 114 % of control.

For NC(=O)c1ncc(-c2ccccc2)[nH]c1=O, the T/C [14] was 104 % of control, the T/C [15] was 100 % of control and the T/C [22] was 109 % of control.

In the case of CC(=O)Nc1ccc(OCCOC(=O)Nc2ccc(C)cc2[N+](=O)[O-])cc1, the T/C [16] is reported as 105 % of control and the T/C [17] is reported as 93 % of control.

CC1(C)O[C@]2(C)CC[C@@H]1[C@@H](O)[C@@H]2N1CCOCC1 was tested, and the T/C (dose: 50.0 mg/kg/injection, schedule: Q01DX005 (ip), vehicle: saline) was 108 % of control, the T/C (dose: 100.0 mg/kg/injection, schedule: Q01DX005 (ip), vehicle: saline) was 106 % of control and the T/C (dose: 200.0 mg/kg/injection, schedule: Q01DX005 (ip), vehicle: saline) was 104 % of control.

For CCSCCCCSCC, the T/C [1] was 104 % of control, the T/C [2] was 104 % of control and the T/C [3] was 100 % of control.

In the case of CN(C)C(=S)Sc1ccc([N+](=O)[O-])cc1[N+](=O)[O-], the T/C (dose: 100.0 mg/kg/injection, schedule: Q01DX001 (ip), vehicle: Klucel (hydroxypropylcellulose) (HPC)) is reported as 100 % of control, the T/C [5] is reported as 100 % of control and the T/C (dose: 200.0 mg/kg/injection, schedule: Q01DX001 (ip), vehicle: Klucel (hydroxypropylcellulose) (HPC)) is reported as 100 % of control. The T/C [6] was 104 % of control, the T/C (dose: 400.0 mg/kg/injection, schedule: Q01DX001 (ip), vehicle: Klucel (hydroxypropylcellulose) (HPC)) was 100 % of control and the T/C [7] was 108 % of control.

CS(=O)(=O)OCCCCOS(C)(=O)=O was tested, and the T/C (dose: 6.25 mg/kg/injection, schedule: Q01DX010 (ip), vehicle: saline) was 100 % of control and 119 % of control, the T/C [19] was 113 % of control and the T/C (dose: 12.5 mg/kg/injection, schedule: Q01DX010 (ip), vehicle: saline) was 122 % of control. For the same compound, the T/C (dose: 20.0 mg/kg/injection, schedule: Q01DX010 (ip), vehicle: other) was 120 % of control, the T/C [20] was 104 % of control and the T/C (dose: 40.0 mg/kg/injection, schedule: Q01DX010 (ip), vehicle: other) was 120 % of control. For the same compound, the T/C [21] was 104 % of control and the T/C (dose: 60.0 mg/kg/injection, schedule: Q01DX010 (ip), vehicle: other) was 120 % of control.

With O=c1c2ccccc2nc(-c2ccccc2Cl)n1-c1nnc(C(F)(F)F)s1 the T/C (dose: 3.12 mg/kg/injection, schedule: Q01DX009 (ip), vehicle: saline with Tween-80) was 87 % of control, the T/C [18] was 89 % of control and the T/C [19] was 89 % of control.

With NC(=O)N(CCO)CCO the T/C [15] was 100 % of control, the T/C (dose: 100.0 mg/kg/injection, schedule: Q04DX003 (ip), vehicle: saline) was 100 % of control and the T/C [22] was 90 % of control. The T/C (dose: 200.0 mg/kg/injection, schedule: Q04DX003 (ip), vehicle: saline) was 100 % of control, the T/C (dose: 400.0 mg/kg/injection, schedule: Q01DX009 (ip), vehicle: saline) was 100 % of control and the T/C (dose: 400.0 mg/kg/injection, schedule: Q04DX003 (ip), vehicle: saline) was 100 % of control.

With CCCO/C(N)=N/OS(=O)(=O)c1ccccc1 the T/C [1] was 97 % of control, the T/C [2] was 99 % of control and the T/C [3] was 96 % of control.

For c1ccc(Nc2n[n+](-c3ccccc3)no2)cc1, the T/C [20] was 105 % of control, the T/C [21] was 101 % of control and the T/C [11] was 101 % of control and 104 % of control. The T/C [1] was 107 % of control, the T/C [12] was 88 % of control and the T/C [2] was 106 % of control. For the same compound, the T/C [3] was 102 % of control.
